{"source": "patent US20090047742A1", "about": "(priority 2005, published 2009)", "key": {"T-Rex-293 cells": {"test_system": "T-Rex-293 cells", "assay": "35S-methionine metabolic labeling (protein synthesis)", "assay_type": "cell-based, human", "protocol": "T-Rex-293 (mazF/pcDNA3) and T-Rex-293 (mazF/mazE) cells were incubated for 0, 24 and 48 hr in tetracycline-containing complete DMEM followed by incubation for 1 hr in fresh methionine-free DMEM containing 10 μCi/ml ^35S-methionine. The cells then were washed with PBS twice and lysed in 2× Laemmli buffer. The cell lysate was subjected to SDS-PAGE followed by autoradiography and coomassie blue stain. Signal intensity was measured by Phosphoimager STORM 860 (Molecular Dynamics, Sunnyvale, Calif.)."}, "BCL-2 family proteins": {"test_system": "BCL-2 family proteins", "assay": "Western blot of BCL-2 family proteins in T-Rex-293 lysates", "assay_type": "cell-based, human", "protocol": "Western blot analysis and immunofluorescence were performed as previously described (Perez, D., and White, E. J. Cell Biol. 141: 1255-1266 (1998); Perez, D., and White, E. Mol. Cell 6: 53-63 (2000)). The term “Western blot” refers to a method for identifying proteins in a complex mixture; proteins are separated electrophoretically in a gel medium; transferred from the gel to a protein binding sheet or membrane; and the sheet or membrane containing the separated proteins exposed to specific antibodies which bind to, locate, and enable visualization of protein(s) of interest. T-Rex-293 (mazF/pcDNA3) and T-Rex-293 (mazF/mazE) cells were harvested at 0, 24, 48 and 72 hr post-treatment with tetracycline or staurosporine by scraping and centrifugation. All cell pellets were lysed in 2× Laemmli buffer. Cell lysates were subjected to electrophoresis on a 15% SDS-PAGE gel and then transferred onto an Immobilon-P membrane (Millipore, Bedford, Mass.). […]"}}, "data": [{"substance": "MazF: E. coli toxin; sequence specific endoribonuclease (mRNA interferase) cleaving single-stranded RNAs at ACA sequences; expressed from plasmid pcDNA4/TO/mazF", "values": [{"measurement": "total protein levels (Coomassie blue)", "setting": "T-Rex-293 cells; MazF expressing T-Rex-293 cells, over the 48 hour induction period", "value": "remain constant"}, {"measurement": "protein synthesis (35S-methionine incorporation)", "setting": "T-Rex-293 cells; T-Rex-293 (mazF/pcDNA3), 24 hours post induction of MazF", "value": "strikingly inhibited"}, {"measurement": "levels of BCL-2 family proteins (Western blot)", "setting": "BCL-2 family proteins; T-Rex-293, MazF induction 0-72 hours", "value": "remained unchanged"}, {"measurement": "truncated BID (tBID) (Western blot)", "setting": "BCL-2 family proteins; T-Rex-293, during MazF-induced apoptosis", "value": "undetectable"}]}]}
